Measured values taken from patent US20240342185A1, “SMALL MOLECULES INHIBITORS OF CYCLIC GMP-AMP SYNTHASE (cGAS)” (priority 2021, published 2024).
Read-outs that look alike come from different tables or passages of the source.

Assays:
[1] = system: TREX1 KO THP-1 ISG Luc cells; assay: cells; format: cell-based; conditions: Homo sapiens, cell viability, 48 h, read-out: CTG IC50
cGAS = cGAS (Homo sapiens, UniProt Q8N884); assay: cell-based
THP-1 ISG Luc cells = assay: cells; format: cell-based; conditions: Homo sapiens, THP-1, 48 h, read-out: CTG IC50
[2] = system: TREX1 KO THP-1 ISG Luc cells; assay: cells; format: cell-based; conditions: Homo sapiens, 48 h, read-out: ISRE-Luc IC50

Chain of cGAS (Q8N884 whole entry): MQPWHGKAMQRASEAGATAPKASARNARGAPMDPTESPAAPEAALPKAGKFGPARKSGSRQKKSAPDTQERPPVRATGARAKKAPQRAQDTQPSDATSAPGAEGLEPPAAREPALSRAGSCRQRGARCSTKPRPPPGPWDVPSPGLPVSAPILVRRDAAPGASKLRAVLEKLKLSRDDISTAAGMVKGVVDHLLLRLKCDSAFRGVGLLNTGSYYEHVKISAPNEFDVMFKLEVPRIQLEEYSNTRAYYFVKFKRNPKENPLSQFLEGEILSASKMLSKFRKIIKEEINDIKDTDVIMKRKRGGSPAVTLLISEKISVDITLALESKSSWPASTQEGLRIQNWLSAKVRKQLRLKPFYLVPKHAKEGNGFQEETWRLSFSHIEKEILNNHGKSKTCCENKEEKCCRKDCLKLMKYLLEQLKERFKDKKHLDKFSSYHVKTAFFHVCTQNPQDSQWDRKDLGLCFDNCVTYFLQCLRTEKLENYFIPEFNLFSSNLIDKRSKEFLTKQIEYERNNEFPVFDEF

Molecule Nc1cc(C2CCN(C(=O)c3cc4ccccc4[nH]3)CC2)no1 [Compound 2, (4-(5-aminoisoxazol-3-yl)piperidin-1-yl)(1H-indol-2-yl)methanone] has an IC50 [1] of over 10000 nM, an IC50 (cGAS) of 890 nM and an IC50 (THP-1 ISG Luc cells) of over 10000 nM. For the same molecule, the IC50 [2] was 950 nM.
